# Assay: Fragrance screen for chemical compatibility with a PAA solution
# Assay type: physicochemical
# Description: A number of fragrances were tested with a PAA solution to screen for chemical compatibility. […] Additionally, “Blackberry Sage Tea” fragrance in combination with the vinegar-like order from the PAA in the sample was not appealing to volunteers who agreed to sample the sample lotion formulation.
row,Compound,Time within which the fragrance degrades PAA
1,CC/C=C\CCO [cis-3-hexen-1-ol],3 to 5 days
2,CC(=O)OCCC(C)CCC=C(C)C (stereo not drawn) [citronellyl acetate],3 to 5 days
3,CC(=O)OC/C=C(/C)CCC=C(C)C [neryl acetate],3 to 5 days

# — patent publication US9044403B2, “Sporicidal hand sanitizing lotion” (Medivators Inc., priority 2008, dated 2015)
